Test: in vitro
Settings: human, hela cells, % viability

Going from `CC(C)(C)c1cc(CN2CCCCC2)c(C(=O)O)o1` [CBK266556C] to `Cc1cc(C)c(S(=O)(=O)N(CC(=O)O)C2CCCCC2)c(C)c1` [CBK266663], the viability at 28.5 h, 10 µM falls from 97.8% to 92.6%.

Compared with `O=C(NCC1(c2ccccc2)CCCC1)c1ccc(NC(=O)C2COc3ccccc3O2)cc1` (stereo not drawn) [CBK266558], `O=C(CC1C(=O)N(c2ccccc2)C(=S)N1NC(=O)c1ccccn1)Nc1ccc(Cl)cc1` (stereo not drawn) [CBK266711] is lower in viability at 28.5 h, 10 µM: 97.9% for the first, 92.2% for the second.

Compared with `COc1cc(S(=O)(=O)NC2CC(C)(C)NC(C)(C)C2)ccc1F` [CBK266561], `COc1cc([N+](=O)[O-])ccc1NC(=O)CS(=O)(=O)Cc1ccccc1` [CBK266704] is higher in viability at 28.5 h, 10 µM: 92% for the first, 105% for the second.

Going from `Cc1ccc(S(=O)(=O)N2CCN(CC(O)COc3ccc4ccccc4c3Cl)CC2)c(C)c1` (stereo not drawn) [CBK266563] to `COc1ccc(-c2nnc3c4ccccc4c(C)nn23)cc1S(=O)(=O)N1CCCCC1` [CBK266640], the viability at 28.5 h, 10 µM rises from 83% to 110%.

First: COc1ccc(N2CCN(/C(=N\S(=O)(=O)c3ccc(C)cc3)Nc3nc(C)cc(C)n3)CC2)cc1 [CBK266564]
Second: Cc1ccc2nc(-c3ccc(N4C(Nc5nc(C)cc(C)n5)=NC(=O)CC4C(=O)O)cc3)sc2c1 (stereo not drawn) [CBK266646]
The viability at 28.5 h, 10 µM of the first is lower: 99.9% for the first, 104% for the second.

First: O=[N+]([O-])c1cc(C(F)(F)F)ccc1NCCCNc1nc(N2CCOCC2)nc2ccccc12 [CBK266567]
Second: CCCNc1nc(Nc2ccc(C)cc2)nc(N2CCOCC2)n1 [CBK266664]
The viability at 28.5 h, 10 µM of the first is higher: 112% for the first, 111% for the second.

First: O=C(CCSc1ccccc1)Nc1ccc(S(=O)(=O)N2CCOCC2)cc1 [CBK266568]
Second: CC1(C)CC(=O)C2=C(C1)NC(SCC(=O)Nc1ccc(S(=O)(=O)N3CCCCC3)cc1)=C(C#N)C2c1ccco1 (stereo not drawn) [CBK266695]
The viability at 28.5 h, 10 µM of the first is higher: 114% for the first, 94.3% for the second.

First: Clc1cccc(Cl)c1CN(Cc1ccccc1)c1ncnc2[nH]cnc12 [CBK266571]
Second: O=C(O)C(Cc1ccccc1)Nc1ncnc2c1oc1ccccc12 (stereo not drawn) [CBK266719]
The viability at 28.5 h, 10 µM of the first is lower: 95.2% for the first, 104% for the second.

First: Nc1nc(SCC(=O)NCc2ccco2)n[nH]1 [CBK266572]
Second: Nc1nc(SCC(=O)NCc2ccc3c(c2)OCO3)n[nH]1 [CBK266580]
The viability at 28.5 h, 10 µM of the first is lower: 94% for the first, 101% for the second.

Going from `COc1ccc(N(CC(=O)NC2CC3CCC2C3)S(=O)(=O)c2ccc(C)cc2)cc1` (stereo not drawn) [CBK266574] to `Cc1ccc(S(=O)(=O)N(C)CC(=O)O/N=C(\N)c2cccnc2)cc1` [CBK266717], the viability at 28.5 h, 10 µM rises from 108% to 110%.

Going from `COc1cc(CNn2c(C)nnc2S)cc(Br)c1OCC(=O)NC(C)(C)C` [CBK266575] to `Cc1cc(Cl)c(S(=O)(=O)NCc2ccccc2)cc1OCC(N)=O` [CBK266588], the viability at 28.5 h, 10 µM falls from 112% to 104%.

Compared with `O=C(CSc1nnc2scc(-c3ccccc3)n12)Nc1nsc(-c2ccc(Cl)cc2)n1` [CBK266576], `O=C(CSc1nnc(-c2ccccc2)n1-c1ccc(Cl)cc1)NCc1ccco1` [CBK266637] is higher in viability at 28.5 h, 10 µM: 95.4% for the first, 99.2% for the second.

First: CC12CCC(C(=O)O)(c3nc4cc([N+](=O)[O-])ccc4nc31)C2(C)C (stereo not drawn) [CBK266577K]
Second: CC1(C)CC2(CC(C)(C(=O)CSc3nnc(-c4ccccc4Br)[nH]3)OC2=O)C(=O)O1 (stereo not drawn) [CBK266713]
The viability at 28.5 h, 10 µM of the first is lower: 95.6% for the first, 102% for the second.

Going from `NS(=O)(=O)c1ccc(CCNC2CC(=O)N(Cc3cccs3)C2=O)cc1` (stereo not drawn) [CBK266579] to `NS(=O)(=O)c1ccc(NC2=NC(=O)C(CC(=O)Nc3ccc(Br)cc3)S2)cc1` (stereo not drawn) [CBK266616], the viability at 28.5 h, 10 µM rises from 91.1% to 117%.

First: COc1ccc2[nH]c(C(=O)O)c(CCC(=O)O)c2c1 [CBK266582]
Second: COc1ccccc1C1=NN(C(=O)CCCC(=O)O)C(c2ccco2)C1 (stereo not drawn) [CBK266642]
The viability at 28.5 h, 10 µM of the first is higher: 98.1% for the first, 91.8% for the second.

Compared with `CCN(CC)CCN1C(=O)C(O)=C(C(=O)c2ccc(C)o2)C1c1ccccn1` (stereo not drawn) [CBK266584], `Cc1nc(-c2ccccc2)sc1C(=O)C1=C(O)C(=O)N(CCN(C)C)C1c1ccc(Cl)cc1` (stereo not drawn) [CBK266595] is higher in viability at 28.5 h, 10 µM: 109% for the first, 110% for the second.

First: Cc1cc(Cl)c(S(=O)(=O)Nc2ccon2)cc1OCC(N)=O [CBK266589]
Second: Cc1ccc(S(=O)(=O)NCC(C)O)cc1-c1nnc2c3ccccc3c(C)nn12 (stereo not drawn) [CBK266614]
The viability at 28.5 h, 10 µM of the first is lower: 99.6% for the first, 106% for the second.

First: CCNc1nc(NCc2ccccc2)nc(Oc2ccc(=O)[nH]n2)n1 [CBK266591]
Second: COc1ccccc1Nc1nc(N)nc(CN2CCc3ccccc3C2)n1 [CBK266635]
The viability at 28.5 h, 10 µM of the first is higher: 104% for the first, 95.1% for the second.

Compared with `COc1ccccc1C1C(C(=O)c2sc(C)nc2C)=C(O)C(=O)N1CCCN1CCOCC1` (stereo not drawn) [CBK266592], `Cc1nc(-c2ccccc2)sc1C(=O)C1=C(O)C(=O)N(CCCN2CCOCC2)C1c1cccs1` (stereo not drawn) [CBK266601] is lower in viability at 28.5 h, 10 µM: 113% for the first, 91.4% for the second.

Going from `COc1cc(NC(=O)CC2NC3CCCCC3NC2=O)cc(OC)c1` (stereo not drawn) [CBK266597] to `CCOc1ccccc1NC(=O)C(C)Oc1ccc(OC)cc1` (stereo not drawn) [CBK266648], the viability at 28.5 h, 10 µM falls from 99.1% to 39.6%.

`COc1ccc(-c2nnc3c4ccccc4c(C)nn23)cc1S(=O)(=O)NC(C)c1ccccc1` (stereo not drawn) [CBK266605] and `Cc1ccc(S(N)(=O)=O)cc1-c1nnc2c3ccccc3c(C)nn12` [CBK266680] are the same in viability at 28.5 h, 10 µM: 104% for the first, 104% for the second.

Compared with `Cc1cc(C)cc(NC(=O)c2ccc(CSc3nnc(N)s3)cc2)c1` [CBK266609], `COc1ccc(Nc2nc(N)nc(CSc3nnc(N)s3)n2)cc1` [CBK266682] is higher in viability at 28.5 h, 10 µM: 85.5% for the first, 90.6% for the second.

Compared with `CCn1c(COc2ccc(Cl)c3cccnc23)nnc1SC` [CBK266611], `COc1ccccc1Nc1nc(N)nc(CSc2nccn2C)n1` [CBK266710] is higher in viability at 28.5 h, 10 µM: 85.9% for the first, 95% for the second.

First: CCN1CCN(C(=O)CN(Cc2ccc(F)cc2)S(=O)(=O)c2ccccc2)CC1 [CBK266612]
Second: CCN1CCN(c2ccc(NC(=O)c3ccc(-c4cc5ccccc5oc4=O)cc3)cc2Cl)CC1 [CBK266700]
The viability at 28.5 h, 10 µM of the first is higher: 96.8% for the first, 84.6% for the second.

First: Nn1c(=O)c2ccccc2n2c(SCC(=O)N(c3ccccc3)c3ccccc3)nnc12 [CBK266621]
Second: O=C(CSc1nnc(Cc2cccc3ccccc23)n1-c1ccccc1)N1CCc2ccccc21 [CBK266697]
The viability at 28.5 h, 10 µM of the first is higher: 99.3% for the first, 99.1% for the second.

Compared with `Cn1c(SCC(=O)NC(c2ccccc2)c2ccccc2)nnc1-c1ccncc1` [CBK266622], `Cc1ccc(CNC(=O)CSc2nnc(-c3ccncc3)n2-c2ccccc2)cc1` [CBK266654] is higher in viability at 28.5 h, 10 µM: 97.8% for the first, 102% for the second.

Going from `N#CC1=C(N)Oc2[nH]nc(-c3ccc4ccccc4c3)c2C1c1cn(CC(N)=O)nc1-c1ccccc1` (stereo not drawn) [CBK266624] to `Nc1nc(COn2c(-c3ccccc3)nc3ccccc3c2=O)nc(-c2ccccc2O)n1` [CBK266689], the viability at 28.5 h, 10 µM falls from 107% to 98.6%.

First: N#C/C(=C/c1ccc(OCc2cccc(C(=O)O)c2)cc1)c1ccc([N+](=O)[O-])cc1 [CBK266626]
Second: COc1cccc(/C=C(/C#N)c2ccc(Cl)cc2)c1OCc1cccc(C(=O)O)c1 [CBK266721]
The viability at 28.5 h, 10 µM of the first is lower: 89.6% for the first, 97.2% for the second.

Compared with `CCN1CCN(Cc2c(O)ccc3c(=O)c(Oc4ccccc4Cl)c(C(F)(F)F)oc23)CC1` [CBK266627], `CCN1CCN(c2ccc(NC(=O)c3cccnc3)cc2Cl)CC1` [CBK266629C] is lower in viability at 28.5 h, 10 µM: 107% for the first, 97.9% for the second.

Going from `O=c1n(-c2ccccc2)c(=O)n(Cc2ccccn2)n1Cc1ccccn1` [CBK266630] to `N#Cc1ccccc1CSc1nnc(Cc2cccc3ccccc23)n1-c1ccccc1` [CBK266633], the viability at 28.5 h, 10 µM falls from 98.7% to 89.7%.

First: Cc1ccc(S(=O)(=O)N2CCC(C(=O)O)CC2)cc1C(=O)O [CBK266636]
Second: O=C(NCCN1CCOCC1)c1cccc(S(=O)(=O)N2CCCCCC2)c1 [CBK266668]
The viability at 28.5 h, 10 µM of the first is higher: 99.6% for the first, 97.3% for the second.

Going from `Cc1cc(=O)oc2ccc(OCC(=O)N(Cc3ccc(F)cc3)Cc3ccco3)cc12` [CBK266639] to `COc1ccc(C(=O)Nn2c(SCC(=O)c3ccc(F)cc3)nc3ccccc3c2=O)cc1` [CBK266688], the viability at 28.5 h, 10 µM falls from 103% to 99.7%.

First: COc1cc(/C=C2/C(=O)N(c3nnn[nH]3)N=C2C)ccc1OC(=O)c1cccs1 [CBK266641]
Second: CC(=O)Nc1ccc(OC(=O)CSc2nc(C)cc(C)n2)cc1 [CBK266707]
The viability at 28.5 h, 10 µM of the first is higher: 112% for the first, 86.6% for the second.

First: O=C(O)CCC(=O)N1N=C(c2ccccc2)CC1c1ccc2nccnc2c1 (stereo not drawn) [CBK266650]
Second: O=C1CC(SCCc2nc3ccccc3[nH]2)C(=O)N1c1cccc(F)c1 (stereo not drawn) [CBK266671]
The viability at 28.5 h, 10 µM of the first is lower: 86.1% for the first, 94.6% for the second.

First: O=C(CSc1nnc(CN2CCOCC2)n1-c1ccccc1)N1CCN(c2ccccc2)CC1 [CBK266660]
Second: O=C(O)CSc1nnc(-c2ccncc2)n1-c1ccc(Cl)cc1 [CBK266686]
The viability at 28.5 h, 10 µM of the first is higher: 102% for the first, 92.1% for the second.

Compared with `COc1ccc(OC(C)C(=O)Nc2ccccc2-c2ccccc2)cc1` (stereo not drawn) [CBK266661], `COc1ccc(OC(C)C(=O)O/N=C(\N)c2ccccn2)cc1` (stereo not drawn) [CBK266669] is higher in viability at 28.5 h, 10 µM: 94.2% for the first, 100% for the second.

Going from `Cc1cc(OCc2nc(-c3ccc(NC(=O)c4ccc5c(c4)OCO5)cc3)no2)ccc1Cl` [CBK266673] to `O=C(Nc1ccc(-c2noc(COc3ccc(Br)cc3)n2)cc1)c1ccc2c(c1)OCO2` [CBK266692], the viability at 28.5 h, 10 µM rises from 95.7% to 97.2%.

Going from `Nc1nonc1-n1nnc(C(=O)O)c1-c1cccs1` [CBK266674] to `Nc1nnc(Sc2ccc([N+](=O)[O-])c3nonc23)s1` [CBK266712], the viability at 28.5 h, 10 µM falls from 99.4% to 82.3%.

First: COc1ccccc1Nc1nc(N)nc(CSCCO)n1 [CBK266679]
Second: COc1ccc(Nc2nc(N)nc(CSCCO)n2)cc1 [CBK266714]
The viability at 28.5 h, 10 µM of the first is higher: 91.4% for the first, 88.3% for the second.

Compared with `Cc1cccc(C)c1NC(=O)Cn1c(SCC(N)=O)nc2ccccc21` [CBK266684], `O=C1CC(SCc2nc3ccccc3[nH]2)C(=O)N1c1ccccc1Cl` (stereo not drawn) [CBK266702] is lower in viability at 28.5 h, 10 µM: 106% for the first, 94.7% for the second.

Going from `Cc1ccc(-c2ccc(/C=C(\C#N)c3nc(-c4ccco4)cs3)o2)c([N+](=O)[O-])c1` [CBK266685] to `O=C(C[S+]([O-])c1ccc(C(F)(F)F)cc1[N+](=O)[O-])Oc1cccc2cccnc12` (stereo not drawn) [CBK266716], the viability at 28.5 h, 10 µM falls from 96% to 91.6%.

Going from `Cc1ccc(S(=O)(=O)NCCOc2nc(N(C)C)nc(N3CCOCC3)n2)cc1` [CBK266705] to `N#Cc1c(N)n(CCN)c2nc3ccccc3nc12` [CBK266706], the viability at 28.5 h, 10 µM falls from 97% to 87.4%.

Reference: publication PMC12040169 (PLOS Biology, 2025)
